Experimental data taken from ChEMBL document CHEMBL1201862, “PubChem BioAssay data set” (2004).
Calls of active or inactive are those of the source.

Key:
[1] = target: 5-hydroxytryptamine receptor 2A (Mus musculus, UniProt P35363); assay type: functional, cell-based;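 further: CHO-K1 cells with tagged receptor and beta-arrestin; agonist potency measured as compound-induced activation of the receptor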
Mu-type opioid receptor = Mu-type opioid receptor (Homo sapiens, UniProt P35372); assay type: functional, cell-based;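 further: U2OS cells with beta-arrestin recruitment to OPRM1 by beta-gal complementation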
Sequence of Mu-type opioid receptor (P35372 whole entry): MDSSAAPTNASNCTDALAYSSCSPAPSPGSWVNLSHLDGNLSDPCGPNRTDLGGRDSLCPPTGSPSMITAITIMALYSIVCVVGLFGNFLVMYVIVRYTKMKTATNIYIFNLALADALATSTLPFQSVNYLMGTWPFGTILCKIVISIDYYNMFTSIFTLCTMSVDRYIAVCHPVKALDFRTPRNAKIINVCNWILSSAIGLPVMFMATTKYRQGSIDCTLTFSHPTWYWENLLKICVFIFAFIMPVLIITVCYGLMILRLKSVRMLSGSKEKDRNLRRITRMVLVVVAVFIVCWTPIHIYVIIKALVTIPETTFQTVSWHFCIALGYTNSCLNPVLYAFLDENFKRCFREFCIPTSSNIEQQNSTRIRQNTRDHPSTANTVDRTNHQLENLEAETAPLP

[2] = target: T1, Small ubiquitin-related modifier 1 (Homo sapiens, UniProt P63165); test: inhibitors of SUMO1 peptide binding, dose response, biochemical, fluorescence polarization, uHTS hits (AID 624382); assay type: functional; conditions: read-out: IC50_Mean
T1 sequence (P63165 whole entry): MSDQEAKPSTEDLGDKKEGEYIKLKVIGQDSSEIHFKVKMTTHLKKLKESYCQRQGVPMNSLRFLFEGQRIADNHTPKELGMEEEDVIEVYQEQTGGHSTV

[3] = target: T1, Small ubiquitin-related modifier 1; test: inhibitors of SUMO1 partner interactions, dose response, biochemical, FRET (AID 624383); assay type: functional; conditions: read-out: IC50_Mean
[4] = target: T2, Corticotropin-releasing factor receptor 2/Corticotropin-releasing factor-binding protein (Homo sapiens, UniProt P24387+Q13324); test: activators of CRF receptor 2 with binding protein – uHTS hits, confirmation (AID 602473); assay type: functional; conditions: read-out: EC50_Mean
T2 sequence (Q13324 whole entry): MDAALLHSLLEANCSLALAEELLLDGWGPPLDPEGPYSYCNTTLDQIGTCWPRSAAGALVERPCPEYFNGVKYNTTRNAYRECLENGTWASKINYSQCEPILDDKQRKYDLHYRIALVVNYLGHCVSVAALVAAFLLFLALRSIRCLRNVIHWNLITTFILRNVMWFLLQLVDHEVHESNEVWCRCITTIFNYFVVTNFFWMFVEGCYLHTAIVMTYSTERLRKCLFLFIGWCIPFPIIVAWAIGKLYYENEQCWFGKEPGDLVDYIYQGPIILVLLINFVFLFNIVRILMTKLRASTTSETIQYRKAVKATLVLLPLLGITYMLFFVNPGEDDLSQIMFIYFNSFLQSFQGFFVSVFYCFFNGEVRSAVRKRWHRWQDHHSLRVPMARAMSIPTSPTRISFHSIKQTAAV
T2 sequence (P24387 whole entry): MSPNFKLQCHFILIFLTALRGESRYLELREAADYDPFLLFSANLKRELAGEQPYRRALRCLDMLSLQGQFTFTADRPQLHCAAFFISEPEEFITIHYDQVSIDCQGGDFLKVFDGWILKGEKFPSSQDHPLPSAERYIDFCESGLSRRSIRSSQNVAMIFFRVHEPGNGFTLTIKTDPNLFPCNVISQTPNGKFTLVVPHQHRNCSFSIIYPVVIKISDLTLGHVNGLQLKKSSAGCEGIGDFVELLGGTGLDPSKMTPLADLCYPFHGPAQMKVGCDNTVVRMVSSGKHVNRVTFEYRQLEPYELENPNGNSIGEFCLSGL

Cytochrome P450 2C19 = Cytochrome P450 2C19 (Homo sapiens, UniProt P33261); test: Cytochrome panel assay with activity outcomes. Panel member name: p450-cyp2c19 Compounds with AC50 equal or less than 10 uM are considered active; assay type: functional; conditions: read-out: AC50
Sequence of Cytochrome P450 2C19 (P33261 whole entry): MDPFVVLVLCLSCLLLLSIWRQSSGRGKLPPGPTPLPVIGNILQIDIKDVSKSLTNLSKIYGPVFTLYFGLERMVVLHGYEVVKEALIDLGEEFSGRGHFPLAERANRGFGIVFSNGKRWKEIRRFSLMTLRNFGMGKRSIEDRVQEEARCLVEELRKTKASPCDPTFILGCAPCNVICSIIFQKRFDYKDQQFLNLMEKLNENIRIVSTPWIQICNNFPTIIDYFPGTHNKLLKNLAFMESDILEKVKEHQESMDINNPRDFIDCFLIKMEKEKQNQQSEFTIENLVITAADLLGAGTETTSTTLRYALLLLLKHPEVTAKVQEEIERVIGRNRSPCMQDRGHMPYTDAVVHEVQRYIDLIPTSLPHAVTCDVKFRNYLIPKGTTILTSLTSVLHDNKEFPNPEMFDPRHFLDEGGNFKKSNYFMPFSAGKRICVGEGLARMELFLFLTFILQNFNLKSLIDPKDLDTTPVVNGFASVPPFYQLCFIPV

[5] = Counterscreen for activators of the function of SWI/SNF related, matrix associated, actin dependent regulator of chromatin, subfamily a, member 2 (SMARCA2, BRM): Luminescence-based cell-based high throughput dose response assay to identify non-selective compounds using the VP16 reporter assay.; assay type: functional
[6] = target: SWI/SNF-related matrix-associated actin-dependent regulator of chromatin subfamily A member 2 (Homo sapiens, UniProt P51531); test: Luminescence-based cell-based high throughput dose response assay to identify activators of the function of SWI/SNF related, matrix associated, actin dependent regulator of chromatin, subfamily a, member 2 (SMARCA2, BRM).; assay type: functional
Sequence of SWI/SNF-related matrix-associated actin-dependent regulator of chromatin subfamily A member 2 (P51531 whole entry): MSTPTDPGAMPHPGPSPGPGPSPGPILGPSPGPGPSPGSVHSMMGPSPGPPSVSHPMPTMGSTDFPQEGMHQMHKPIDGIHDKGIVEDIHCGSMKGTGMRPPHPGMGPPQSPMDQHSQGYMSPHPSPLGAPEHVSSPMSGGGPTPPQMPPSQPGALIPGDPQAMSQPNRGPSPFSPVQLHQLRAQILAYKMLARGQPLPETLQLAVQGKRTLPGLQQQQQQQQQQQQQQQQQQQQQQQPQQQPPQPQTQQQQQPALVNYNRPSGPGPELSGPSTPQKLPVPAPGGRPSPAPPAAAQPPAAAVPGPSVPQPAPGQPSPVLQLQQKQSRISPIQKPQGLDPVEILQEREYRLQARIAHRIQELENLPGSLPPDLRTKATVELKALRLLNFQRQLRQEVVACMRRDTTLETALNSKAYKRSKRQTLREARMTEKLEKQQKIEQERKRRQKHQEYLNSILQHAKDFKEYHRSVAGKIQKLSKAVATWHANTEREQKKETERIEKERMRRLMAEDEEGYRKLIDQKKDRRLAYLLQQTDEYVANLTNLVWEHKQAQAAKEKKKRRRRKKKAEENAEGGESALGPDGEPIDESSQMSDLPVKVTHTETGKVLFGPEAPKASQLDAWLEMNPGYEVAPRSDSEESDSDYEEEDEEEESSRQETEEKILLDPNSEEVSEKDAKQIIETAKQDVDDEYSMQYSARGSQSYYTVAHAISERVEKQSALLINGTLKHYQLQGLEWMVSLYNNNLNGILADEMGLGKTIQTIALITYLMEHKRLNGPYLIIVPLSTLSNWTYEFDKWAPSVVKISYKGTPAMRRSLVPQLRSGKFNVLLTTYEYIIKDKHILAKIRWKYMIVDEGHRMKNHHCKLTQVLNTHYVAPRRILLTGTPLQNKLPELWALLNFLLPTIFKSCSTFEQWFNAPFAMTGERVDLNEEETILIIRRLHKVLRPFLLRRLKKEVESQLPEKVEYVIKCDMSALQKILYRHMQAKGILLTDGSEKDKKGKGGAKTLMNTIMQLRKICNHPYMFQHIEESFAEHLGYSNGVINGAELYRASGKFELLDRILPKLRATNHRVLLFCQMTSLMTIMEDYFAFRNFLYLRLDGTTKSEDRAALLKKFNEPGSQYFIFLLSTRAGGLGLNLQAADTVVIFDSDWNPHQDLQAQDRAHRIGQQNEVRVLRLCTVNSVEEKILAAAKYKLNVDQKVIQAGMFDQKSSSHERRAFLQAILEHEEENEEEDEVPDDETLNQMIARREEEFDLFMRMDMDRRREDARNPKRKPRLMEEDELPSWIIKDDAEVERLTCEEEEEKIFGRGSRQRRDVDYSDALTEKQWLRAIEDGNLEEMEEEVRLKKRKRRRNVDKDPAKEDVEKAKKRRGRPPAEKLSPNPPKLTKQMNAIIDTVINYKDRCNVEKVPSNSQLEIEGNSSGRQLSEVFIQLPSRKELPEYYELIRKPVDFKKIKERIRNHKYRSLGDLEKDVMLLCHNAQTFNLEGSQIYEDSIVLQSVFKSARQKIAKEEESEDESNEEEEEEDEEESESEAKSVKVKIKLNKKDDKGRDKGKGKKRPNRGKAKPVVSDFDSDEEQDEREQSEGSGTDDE

[7] = target: T3, Heat shock factor protein 1 (Mus musculus, UniProt P38532); test: HSF1 potentiators in luciferase reporter cells, confirmation, cell-based, NIH3T3, luminescence, dose retest (AID 435004); assay type: functional;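 further: stress induced by proteasome inhibitor MG132 added 30 min after compound; luciferase reporter driven by HSF1 response element in NIH3T3 cells; actives raise luminescence as potentiators of the MG132 stress response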
T3 sequence (P38532 whole entry): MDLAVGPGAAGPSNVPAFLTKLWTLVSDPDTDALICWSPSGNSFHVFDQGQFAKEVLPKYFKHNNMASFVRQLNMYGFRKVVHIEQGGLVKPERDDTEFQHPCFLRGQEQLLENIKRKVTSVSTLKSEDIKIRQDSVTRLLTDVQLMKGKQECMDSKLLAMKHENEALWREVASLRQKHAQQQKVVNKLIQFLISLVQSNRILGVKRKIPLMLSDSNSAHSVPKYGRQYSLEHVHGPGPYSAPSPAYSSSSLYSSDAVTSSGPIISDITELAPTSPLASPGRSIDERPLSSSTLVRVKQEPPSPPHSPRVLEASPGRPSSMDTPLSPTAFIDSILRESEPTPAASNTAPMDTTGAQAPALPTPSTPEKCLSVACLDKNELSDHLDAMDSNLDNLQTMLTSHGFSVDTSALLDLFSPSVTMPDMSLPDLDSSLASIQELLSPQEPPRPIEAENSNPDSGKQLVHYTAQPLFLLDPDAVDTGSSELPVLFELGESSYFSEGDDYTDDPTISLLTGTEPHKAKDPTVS

[8] = target: T4, Methionyl-tRNA synthetase, putative (Trypanosoma brucei brucei, UniProt Q38C91); assay type: functional, Trypanosoma brucei brucei strain 927/4 GUTat10.1
T4 sequence (Q38C91 whole entry): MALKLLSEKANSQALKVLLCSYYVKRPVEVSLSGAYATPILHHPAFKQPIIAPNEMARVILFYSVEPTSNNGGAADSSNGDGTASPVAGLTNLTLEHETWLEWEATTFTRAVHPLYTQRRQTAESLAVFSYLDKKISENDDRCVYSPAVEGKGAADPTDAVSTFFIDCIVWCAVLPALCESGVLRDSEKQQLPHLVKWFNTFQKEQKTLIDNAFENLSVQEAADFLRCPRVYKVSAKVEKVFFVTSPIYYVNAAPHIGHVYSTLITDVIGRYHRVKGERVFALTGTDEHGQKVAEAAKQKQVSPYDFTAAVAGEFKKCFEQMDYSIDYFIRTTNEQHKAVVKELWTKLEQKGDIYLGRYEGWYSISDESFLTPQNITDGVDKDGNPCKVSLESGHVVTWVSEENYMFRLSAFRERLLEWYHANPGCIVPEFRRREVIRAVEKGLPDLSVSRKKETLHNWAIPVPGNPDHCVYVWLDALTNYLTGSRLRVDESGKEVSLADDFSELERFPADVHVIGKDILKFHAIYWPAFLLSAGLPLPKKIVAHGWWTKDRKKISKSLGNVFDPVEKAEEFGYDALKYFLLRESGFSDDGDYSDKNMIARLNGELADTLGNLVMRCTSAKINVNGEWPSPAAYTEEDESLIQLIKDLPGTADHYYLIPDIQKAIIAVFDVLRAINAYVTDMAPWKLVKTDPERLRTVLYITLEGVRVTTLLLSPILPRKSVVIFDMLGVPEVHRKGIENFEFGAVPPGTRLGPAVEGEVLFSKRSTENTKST

[9] = target: T4, Methionyl-tRNA synthetase, putative; assay type: functional, Trypanosoma brucei brucei strain 927/4 GUTat10.1; remark: listed apart in the source
[10] = Counterscreen for inhibitors of Trypanosoma brucei methionyl tRNA synthetase (MetRS): Luminescence-based cell-based high throughput dose response assay to identify compounds that are cytotoxic to Jurkat human T lymphocyte cells.; assay type: functional
[11] = target: T5, Sentrin-specific protease 1 (Homo sapiens, UniProt Q9P0U3); test: Dose response confirmation of small molecule inhibitors of the catalytic domain of the SUMO protease, SENP1 in a FRET assay.; assay type: functional; conditions: read-out: IC50_Mean
T5 sequence (Q9P0U3 whole entry): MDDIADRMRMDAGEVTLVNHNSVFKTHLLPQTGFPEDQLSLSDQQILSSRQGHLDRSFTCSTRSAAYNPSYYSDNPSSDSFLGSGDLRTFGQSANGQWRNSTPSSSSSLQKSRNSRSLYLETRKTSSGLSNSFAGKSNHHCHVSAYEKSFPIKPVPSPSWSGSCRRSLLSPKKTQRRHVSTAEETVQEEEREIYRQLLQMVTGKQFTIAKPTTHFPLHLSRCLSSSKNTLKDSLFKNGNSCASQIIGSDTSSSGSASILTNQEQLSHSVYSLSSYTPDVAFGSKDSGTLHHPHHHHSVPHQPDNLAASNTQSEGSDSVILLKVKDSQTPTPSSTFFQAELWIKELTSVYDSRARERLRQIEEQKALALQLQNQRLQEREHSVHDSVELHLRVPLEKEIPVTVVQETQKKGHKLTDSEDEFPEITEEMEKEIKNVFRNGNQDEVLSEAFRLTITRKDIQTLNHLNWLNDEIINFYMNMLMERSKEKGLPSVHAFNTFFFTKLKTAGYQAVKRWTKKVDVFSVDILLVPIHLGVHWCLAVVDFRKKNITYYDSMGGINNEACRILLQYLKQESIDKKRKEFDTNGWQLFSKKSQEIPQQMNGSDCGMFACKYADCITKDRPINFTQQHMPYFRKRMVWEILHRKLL

[12] = target: T5, Sentrin-specific protease 1; test: potency of human SENP1 inhibitors, dose response, biochemical, kinetic FRET (AID 651697); assay type: functional; conditions: read-out: IC50_Mean
[13] = NIH-3T3 fibroblast cytotoxicity, dose response, cytotoxicity control, cell-based, fluorescence, Alamar Blue, secondary assay (AID 2327); assay type: functional;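 further: NIH-3T3 mouse fibroblasts cultured with fluconazole at 8 µg/mL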
[14] = C. albicans growth with fluconazole, confirmation, fluorescence, retest (AID 2467); assay type: functional, cell-based
[15] = target: T6, Rac GTPase-activating protein 1 (Homo sapiens, UniProt Q9H0H5); test: MgcRacGAP GTPase-activating activity inhibitors, confirmation, biochemical, ADP Hunter fluorescence, primary and confirmatory (AID 624330); assay type: functional
T6 sequence (Q9H0H5 whole entry): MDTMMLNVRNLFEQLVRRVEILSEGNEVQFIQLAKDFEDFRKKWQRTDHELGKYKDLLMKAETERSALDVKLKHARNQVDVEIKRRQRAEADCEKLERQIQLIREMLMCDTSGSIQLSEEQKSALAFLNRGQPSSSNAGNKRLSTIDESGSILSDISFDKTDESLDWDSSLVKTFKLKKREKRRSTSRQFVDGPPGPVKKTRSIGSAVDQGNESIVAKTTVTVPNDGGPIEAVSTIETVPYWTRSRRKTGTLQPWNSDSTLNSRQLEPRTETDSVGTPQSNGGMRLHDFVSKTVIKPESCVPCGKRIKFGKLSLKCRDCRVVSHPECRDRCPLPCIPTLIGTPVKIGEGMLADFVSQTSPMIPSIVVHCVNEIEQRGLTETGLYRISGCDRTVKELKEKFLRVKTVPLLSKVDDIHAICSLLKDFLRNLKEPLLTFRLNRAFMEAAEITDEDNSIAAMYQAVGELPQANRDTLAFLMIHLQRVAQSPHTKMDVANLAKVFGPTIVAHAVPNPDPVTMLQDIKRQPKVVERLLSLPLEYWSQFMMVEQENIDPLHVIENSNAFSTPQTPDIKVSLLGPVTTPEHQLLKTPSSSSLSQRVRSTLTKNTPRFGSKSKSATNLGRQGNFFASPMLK

Albumin = Albumin (Bos taurus, UniProt P02769); test: Counterscreen for inhibitors of T-cell receptor (TCR)-CD3 interaction: Fluorescence-based biochemical high throughput dose response assay to identify inhibitors of T-cell receptor (TCR)-CD3 interaction using a TAMRA-labeled BSA probe.; assay type: functional
Sequence of Albumin (P02769 whole entry): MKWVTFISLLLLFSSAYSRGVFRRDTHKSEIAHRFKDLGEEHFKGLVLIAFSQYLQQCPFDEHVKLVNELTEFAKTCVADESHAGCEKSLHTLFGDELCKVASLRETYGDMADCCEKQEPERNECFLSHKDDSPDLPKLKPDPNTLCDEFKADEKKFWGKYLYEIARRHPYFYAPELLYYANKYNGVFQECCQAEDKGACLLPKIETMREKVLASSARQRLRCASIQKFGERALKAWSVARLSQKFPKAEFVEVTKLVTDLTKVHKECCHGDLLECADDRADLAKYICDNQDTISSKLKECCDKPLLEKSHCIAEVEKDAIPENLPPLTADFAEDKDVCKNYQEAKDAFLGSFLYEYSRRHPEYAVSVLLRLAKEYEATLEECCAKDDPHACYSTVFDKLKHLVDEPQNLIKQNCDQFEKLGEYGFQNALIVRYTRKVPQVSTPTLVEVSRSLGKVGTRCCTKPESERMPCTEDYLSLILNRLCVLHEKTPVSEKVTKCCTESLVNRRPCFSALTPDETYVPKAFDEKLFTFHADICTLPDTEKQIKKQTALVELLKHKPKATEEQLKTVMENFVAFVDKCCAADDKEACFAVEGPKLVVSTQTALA

A549 = test: A549 cell toxicity, dose response, cytotoxicity control, plate reader, cherry-pick samples (AID 687028); assay type: functional, cell-based; conditions: Homo sapiens
[16] = target: FAD-linked sulfhydryl oxidase ALR (Homo sapiens, UniProt P55789); test: inhibitors of human ALR sulfhydryl oxidase, dose response, biochemical, H2O2 detection, luminescence, cherry-pick (AID 493248)
Sequence of FAD-linked sulfhydryl oxidase ALR (P55789 whole entry): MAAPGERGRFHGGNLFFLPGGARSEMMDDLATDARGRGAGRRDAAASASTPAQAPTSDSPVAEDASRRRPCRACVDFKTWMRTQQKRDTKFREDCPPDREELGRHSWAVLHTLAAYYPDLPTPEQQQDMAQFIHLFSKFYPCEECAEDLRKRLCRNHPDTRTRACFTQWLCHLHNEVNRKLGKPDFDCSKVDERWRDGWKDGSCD

Large T antigen = Large T antigen (Simian virus 40, UniProt P03070); assay type: functional, Betapolyomavirus macacae;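 further: Confirmatory-stage PubChem screen for compounds that inhibit SV40 T antigen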
Sequence of Large T antigen (P03070 whole entry): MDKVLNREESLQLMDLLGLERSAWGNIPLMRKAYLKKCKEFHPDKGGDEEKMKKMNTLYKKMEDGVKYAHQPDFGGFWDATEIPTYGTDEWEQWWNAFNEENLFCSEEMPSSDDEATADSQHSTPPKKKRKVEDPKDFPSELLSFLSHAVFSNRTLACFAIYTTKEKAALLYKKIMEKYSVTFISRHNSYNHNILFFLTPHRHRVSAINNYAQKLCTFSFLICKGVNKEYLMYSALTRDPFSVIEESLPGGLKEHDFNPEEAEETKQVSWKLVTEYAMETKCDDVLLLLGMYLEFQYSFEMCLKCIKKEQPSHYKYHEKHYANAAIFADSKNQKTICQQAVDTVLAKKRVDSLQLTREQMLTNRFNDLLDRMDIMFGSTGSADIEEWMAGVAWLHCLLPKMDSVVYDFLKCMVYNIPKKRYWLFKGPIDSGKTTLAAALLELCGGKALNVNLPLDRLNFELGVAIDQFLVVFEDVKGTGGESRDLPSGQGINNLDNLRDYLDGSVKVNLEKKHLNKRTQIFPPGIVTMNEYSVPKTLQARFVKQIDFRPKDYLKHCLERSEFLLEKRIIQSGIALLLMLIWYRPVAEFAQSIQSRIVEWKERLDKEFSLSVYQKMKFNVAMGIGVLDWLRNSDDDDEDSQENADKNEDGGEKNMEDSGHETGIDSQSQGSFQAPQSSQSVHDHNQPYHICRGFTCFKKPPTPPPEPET

Paired box protein Pax-8 = Paired box protein Pax-8 (Homo sapiens, UniProt Q06710); test: inhibitors of PAX8-driven TPO luciferase reporter, dose response, RMG-I cells, cherry-pick (AID 687027); assay type: functional, cell-based;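 further: luciferase reporter driven by Pax8 target thyroperoxidase promoter measured by SteadyGlo luminescence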
Sequence of Paired box protein Pax-8 (Q06710 whole entry): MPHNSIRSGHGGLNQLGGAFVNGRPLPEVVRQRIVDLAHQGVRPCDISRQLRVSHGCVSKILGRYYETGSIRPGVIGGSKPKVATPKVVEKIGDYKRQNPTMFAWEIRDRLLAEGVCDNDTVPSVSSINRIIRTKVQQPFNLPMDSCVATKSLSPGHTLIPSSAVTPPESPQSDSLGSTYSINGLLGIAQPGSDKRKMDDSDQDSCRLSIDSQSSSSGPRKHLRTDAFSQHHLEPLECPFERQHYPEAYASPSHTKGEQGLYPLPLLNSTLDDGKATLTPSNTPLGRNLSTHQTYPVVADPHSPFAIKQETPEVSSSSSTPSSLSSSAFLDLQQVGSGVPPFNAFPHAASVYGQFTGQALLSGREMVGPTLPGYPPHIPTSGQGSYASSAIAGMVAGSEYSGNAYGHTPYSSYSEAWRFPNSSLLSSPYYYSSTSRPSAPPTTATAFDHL

[17] = IGROV1 ovarian cancer cell cytotoxicity, dose response, PAX8 inhibitor project, plate reader, dry powder samples (AID 743043); assay type: functional, cell-based; conditions: IGROV-1
[18] = HEK293 cell viability, dose response, counter-screen for EBV LMP1 inhibitor project, dry powder, set 2 (AID 624374); assay type: functional
[19] = HEK293T cytotoxicity, dose response, cytotoxicity control for miR-122 modulator project, cell-based, inhibitor set, cherry-pick, set 2 (AID 720697); assay type: functional
[20] = HEK293T cytotoxicity, dose response, cytotoxicity control for miR-122 modulator project, cell-based, activator set, cherry-pick (AID 720690); assay type: functional;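 further: HEK293T human cells scored for general mammalian cytotoxicity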

Sequence of 5-hydroxytryptamine receptor 2A (P35363 whole entry): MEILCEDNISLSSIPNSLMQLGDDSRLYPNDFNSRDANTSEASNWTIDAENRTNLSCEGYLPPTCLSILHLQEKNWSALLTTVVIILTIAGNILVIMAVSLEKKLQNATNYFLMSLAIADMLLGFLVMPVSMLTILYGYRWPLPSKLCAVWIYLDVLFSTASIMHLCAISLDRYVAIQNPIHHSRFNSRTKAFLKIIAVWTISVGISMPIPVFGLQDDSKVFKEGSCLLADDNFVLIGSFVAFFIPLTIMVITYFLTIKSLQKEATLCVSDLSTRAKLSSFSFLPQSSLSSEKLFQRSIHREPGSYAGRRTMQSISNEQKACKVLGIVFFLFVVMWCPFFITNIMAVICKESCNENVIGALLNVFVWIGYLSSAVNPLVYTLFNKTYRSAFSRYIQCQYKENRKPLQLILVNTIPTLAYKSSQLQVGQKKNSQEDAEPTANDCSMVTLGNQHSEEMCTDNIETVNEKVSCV

Cc1ccsc1CN1CCN(c2ccccn2)CC1
EC50 [1]: 0.282 µM (active)
EC50 (Mu-type opioid receptor): 92.5 µM (inactive)

COC(=O)c1ccc2c(c1)C(=O)/C(=C/c1ccc(O)cc1)O2
IC50 [2]: > 66.6 µM (inactive)
IC50 [3]: 7.4 µM (active)
EC50 [4]: > 53 µM (inactive)

Cc1cccc(NC(=O)c2ccc([N+](=O)[O-])o2)n1
AC50 (Cytochrome P450 2C19): 20 µM (inconclusive)
EC50 [5]: > 91.1 µM (inactive)
EC50 [6]: > 91.1 µM (inactive)

CC(CCc1ccccc1)NC(=O)CN1CCc2ccccc2C1 (stereo not drawn)
EC50 [1]: 76.1 µM (inactive)
EC50 (Mu-type opioid receptor): 92.5 µM (inactive)
EC50 [7]: > 260 µM (inactive)

CCOc1cc(/C=C2\SC(=S)N(NS(=O)(=O)c3ccccc3)C2=O)ccc1O
IC50 [8]: 41.8 µM (inactive)
IC50 [9]: 122 µM (inactive)
IC50 [10]: 83.3 µM (inactive)
IC50 [11]: 2.41 µM (active)
IC50 [12]: 3.73 µM (active)
EC50 [13]: > 150 µM (inactive)
EC50 [14]: 1.88 µM (active)

COc1cc(/C=C2\SC(=Nc3c(C)n(C)n(-c4ccccc4)c3=O)NC2=O)ccc1O
IC50 [11]: 11.2 µM (active)
IC50 [12]: 15.5 µM (active)
IC50 [15]: 38.7 µM (active)

Nc1ccc([N+](=O)[O-])cc1C(=O)NNC(=O)c1ccco1
IC50 (Albumin): > 94.1 µM (inactive)

O=C(NCc1ccc2c(c1)OCO2)C(=O)NCC1OCCCN1S(=O)(=O)c1ccccc1 (stereo not drawn)
AC50 (A549): 27.9 µM (active)

Oc1ccc(/C=N/Nc2ncnc3c2ncn3Cc2ccccc2)cc1O
AC50 [16]: 2.19 µM (active)
IC50 (Albumin): > 94.1 µM (inactive)
IC50 [15]: 23 µM (active)
IC50 (Large T antigen): 3.87 µM (active)

CC(C)(C)NC(=O)C(c1cccc2ccccc12)n1c(=O)c(-c2ccccc2)nc2ccccc21 (stereo not drawn)
AC50 (A549): 8.91 µM (active)

C[C@@H]1CN([C@@H](C)CO)C(=O)Cc2cc(NS(=O)(=O)c3ccc(Cl)cc3)ccc2O[C@H]1CN(C)Cc1ccc(Cl)c(Cl)c1
AC50 (Paired box protein Pax-8): 4.26 µM (active)
AC50 [17]: 38.5 µM (active)

O=C(Cc1ccccn1)NCC[C@@H]1CC[C@@H](NC(=O)Nc2ccc(Cl)cc2)[C@H](CO)O1
AbsAC35 [18]: 175.41 µM

C[C@H](CO)N1C[C@H](C)[C@H](CN(C)Cc2ccccc2)Oc2cc(/C=C/c3ccccc3)ccc2S1(=O)=O
AC50 [19]: 34.5 µM (active)
AC50 [20]: 22.7 µM (active)
